Literature values in PubChem BioAssay AID1259409 (Chemical Carcinogenesis Research Information System (CCRIS), 2018).

Tested on: rodent chemically induced tumor inhibition, incidence and multiplicity
Experiment: CCRIS tumor inhibitor studies
Conditions: Route [Inhibitor]: ORAL, Species: RAT, Promoter: NONE USED

Structure (SMILES): O=[Se](O)O
- tumour outcome (control, treated, inhibition, significance) (Carcinogen: 7,12-DIMETHYLBENZ[A]ANTHRACENE, 57-97-6, Dose [Inhibitor]: 5 PPM IN 25% CORN OIL DIET DAILY FOR 4 WK STARTING 2 WK BEFORE CARCINOGEN TREATMENT AND CONTINUING FOR 2 WK POST CARCINO, Strain/Sex: SPRAGUE-DAWLEY/FEMALE, Target Tissue: Type of Lesion: MAMMARY GLAND: ADENOCARCINOMA, Dose [Carcinogen]: 10 MG ONCE AT 50 D OF AGE): 97%, 72%, 26%, p<0.02
- tumour outcome (control, treated, inhibition, significance) (Carcinogen: 7,12-DIMETHYLBENZ[A]ANTHRACENE, 57-97-6, Dose [Inhibitor]: 5 PPM IN 25% CORN OIL DIET DAILY FOR 10 WK STARTING 2 WK AFTER CARCINOGEN TREATMENT (STUDY DURATION: 24 WK), Strain/Sex: SPRAGUE-DAWLEY/FEMALE, Target Tissue: Type of Lesion: MAMMARY GLAND: ADENOCARCINOMA, Dose [Carcinogen]: 10 MG ONCE AT 50 D OF AGE): 97%, 86%, 11%, not significant
- tumour outcome (control, treated, inhibition, significance) (Carcinogen: 7,12-DIMETHYLBENZ[A]ANTHRACENE, 57-97-6, Dose [Inhibitor]: 5 PPM IN 25% CORN OIL DIET DAILY FOR 12 WK STARTING 12 WK AFTER CARCINOGEN TREATMENT (STUDY DURATION: 24 WK), Strain/Sex: SPRAGUE-DAWLEY/FEMALE, Target Tissue: Type of Lesion: MAMMARY GLAND: ADENOCARCINOMA, Dose [Carcinogen]: 10 MG ONCE AT 50 D OF AGE): 97%, 91%, 6%, not significant
- tumour outcome (control, treated, inhibition, significance) (Carcinogen: 7,12-DIMETHYLBENZ[A]ANTHRACENE, 57-97-6, Dose [Inhibitor]: 5 PPM IN 25% CORN OIL DIET DAILY FOR 14 WK STARTING 2 WK BEFORE CARCINOGEN TREATMENT (STUDY DURATION: 26 WK), Strain/Sex: SPRAGUE-DAWLEY/FEMALE, Target Tissue: Type of Lesion: MAMMARY GLAND: ADENOCARCINOMA, Dose [Carcinogen]: 10 MG ONCE AT 50 D OF AGE): 97%, 57%, 41%, p<0.02
- tumour outcome (control, treated, inhibition, significance) (Carcinogen: 7,12-DIMETHYLBENZ[A]ANTHRACENE, 57-97-6, Dose [Inhibitor]: 5 PPM IN 25% CORN OIL DIET DAILY FOR 22 WK STARTING 2 WK AFTER CARCINOGEN TREATMENT AND CONTINUING FOR DURATION OF STUDY, Strain/Sex: SPRAGUE-DAWLEY/FEMALE, Target Tissue: Type of Lesion: MAMMARY GLAND: ADENOCARCINOMA, Dose [Carcinogen]: 10 MG ONCE AT 50 D OF AGE): 97%, 69%, 26%, p<0.02
- tumour outcome (control, treated, inhibition, significance) (Carcinogen: 7,12-DIMETHYLBENZ[A]ANTHRACENE, 57-97-6, Dose [Inhibitor]: 5 PPM IN 25% CORN OIL DIET DAILY FOR 26 WK STARTING 2 WK BEFORE CARCINOGEN TREATMENT AND CONTINUING FOR DURATION OF STUD, Strain/Sex: SPRAGUE-DAWLEY/FEMALE, Target Tissue: Type of Lesion: MAMMARY GLAND: ADENOCARCINOMA, Dose [Carcinogen]: 10 MG ONCE AT 50 D OF AGE): 97%, 46%, 53%, p<0.02
- tumour outcome (control, treated, inhibition, significance) (Carcinogen: AZOXYMETHANE, 25843-45-2, Dose [Inhibitor]: 0.5 PPM IN DIET BEGINNING 1 WK POST CARCINOGEN DOSE FOR DURATION OF STUDY (STUDY DURATION: 39 WK), Strain/Sex: F344/MALE, Target Tissue: Type of Lesion: COLON: ADENOCARCINOMA, Dose [Carcinogen]: 15 MG/KG BW 1/WK FOR 2 WK): 10/27 (37%), 9/27 (33%), 11%, not significant
- tumour outcome (control, treated, inhibition, significance) (Carcinogen: AZOXYMETHANE, 25843-45-2, Dose [Inhibitor]: 0.5 PPM IN DIET BEGINNING 1 WK POST CARCINOGEN DOSE FOR DURATION OF STUDY (STUDY DURATION: 39 WK), Strain/Sex: F344/MALE, Target Tissue: Type of Lesion: COLON: ADENOMA, Dose [Carcinogen]: 15 MG/KG BW 1/WK FOR 2 WK): 16/27 (59%), 20/27 (74%), -25%, not significant
- tumour outcome (control, treated, inhibition, significance) (Carcinogen: AZOXYMETHANE, 25843-45-2, Dose [Inhibitor]: 0.5 PPM IN DIET BEGINNING 1 WK POST CARCINOGEN DOSE FOR DURATION OF STUDY (STUDY DURATION: 39 WK), Strain/Sex: F344/MALE, Target Tissue: Type of Lesion: DUODENUM: ADENOCARCINOMA, Dose [Carcinogen]: 15 MG/KG BW 1/WK FOR 2 WK): 7/27 (26%), 7/27 (26%), 0%, not significant
- tumour outcome (control, treated, inhibition, significance) (Carcinogen: AZOXYMETHANE, 25843-45-2, Dose [Inhibitor]: 0.5 PPM IN DIET BEGINNING 1 WK POST CARCINOGEN DOSE FOR DURATION OF STUDY (STUDY DURATION: 39 WK), Strain/Sex: F344/MALE, Target Tissue: Type of Lesion: DUODENUM: ADENOMA, Dose [Carcinogen]: 15 MG/KG BW 1/WK FOR 2 WK): 3/27 (11%), 4/27 (15%), -36%, not significant
- tumour outcome (control, treated, inhibition, significance) (Carcinogen: AZOXYMETHANE, 25843-45-2, Dose [Inhibitor]: 0.5 PPM IN DIET BEGINNING 3 WK PRIOR TO CARCINOGEN DOSE AND CONTINUING FOR 1 WK POST CARCINOGEN DOSE (STUDY DURATION: 39, Strain/Sex: F344/MALE, Target Tissue: Type of Lesion: COLON: ADENOMA, Dose [Carcinogen]: 15 MG/KG BW 1/WK FOR 2 WK): 16/27 (59%), 16/27 (59%), 0%, not significant
- tumour outcome (control, treated, inhibition, significance) (Carcinogen: AZOXYMETHANE, 25843-45-2, Dose [Inhibitor]: 0.5 PPM IN DIET BEGINNING 3 WK PRIOR TO CARCINOGEN DOSE AND CONTINUING FOR 1 WK POST CARCINOGEN DOSE (STUDY DURATION: 39, Strain/Sex: F344/MALE, Target Tissue: Type of Lesion: DUODENUM: ADENOCARCINOMA, Dose [Carcinogen]: 15 MG/KG BW 1/WK FOR 2 WK): 7/27 (26%), 7/27 (26%), 0%, not significant
- tumour outcome (control, treated, inhibition, significance) (Carcinogen: AZOXYMETHANE, 25843-45-2, Dose [Inhibitor]: 0.5 PPM IN DIET BEGINNING 3 WK PRIOR TO CARCINOGEN DOSE AND CONTINUING FOR 1 WK POST CARCINOGEN DOSE (STUDY DURATION: 39, Strain/Sex: F344/MALE, Target Tissue: Type of Lesion: DUODENUM: ADENOMA, Dose [Carcinogen]: 15 MG/KG BW 1/WK FOR 2 WK): 3/27 (11%), 2/27 (7%), 36%, not calculated
- tumour outcome (control, treated, inhibition, significance) (Carcinogen: AZOXYMETHANE, 25843-45-2, Dose [Inhibitor]: 2.5 PPM IN DIET BEGINNING 1 WK POST CARCINOGEN DOSE FOR DURATION OF STUDY (STUDY DURATION: 39 WK), Strain/Sex: F344/MALE, Target Tissue: Type of Lesion: COLON: ADENOCARCINOMA, Dose [Carcinogen]: 15 MG/KG BW 1/WK FOR 2 WK): 10/27 (37%), 1/27 (4%), 89%, p<0.05
- tumour outcome (control, treated, inhibition, significance) (Carcinogen: AZOXYMETHANE, 25843-45-2, Dose [Inhibitor]: 2.5 PPM IN DIET BEGINNING 1 WK POST CARCINOGEN DOSE FOR DURATION OF STUDY (STUDY DURATION: 39 WK), Strain/Sex: F344/MALE, Target Tissue: Type of Lesion: COLON: ADENOMA, Dose [Carcinogen]: 15 MG/KG BW 1/WK FOR 2 WK): 16/27 (59%), 12/27 (44%), 25%, not significant
